In ChEMBL document CHEMBL4422670, “Ac4GlcNAcF3, an OGT-tolerated but OGA-resistant regulator for O-GlcNAcylation” (Bioorg Med Chem Lett, 2019):
Blank lines part the entries; values can stand above or below the compound they belong to. The source made the active and inactive calls. No cut-off for these calls is given here.

What was measured:
[1] = biological target: T1, Protein O-GlcNAcase (Mus musculus) (UniProt Q9EQQ9); test: Inhibition of OGA in mouse NIH/3T3 cells assessed as increase in O-GlcNAcylation at 20 uM after 24 hrs by Western blot analysis; format: cell-based
T1 sequence (whole entry): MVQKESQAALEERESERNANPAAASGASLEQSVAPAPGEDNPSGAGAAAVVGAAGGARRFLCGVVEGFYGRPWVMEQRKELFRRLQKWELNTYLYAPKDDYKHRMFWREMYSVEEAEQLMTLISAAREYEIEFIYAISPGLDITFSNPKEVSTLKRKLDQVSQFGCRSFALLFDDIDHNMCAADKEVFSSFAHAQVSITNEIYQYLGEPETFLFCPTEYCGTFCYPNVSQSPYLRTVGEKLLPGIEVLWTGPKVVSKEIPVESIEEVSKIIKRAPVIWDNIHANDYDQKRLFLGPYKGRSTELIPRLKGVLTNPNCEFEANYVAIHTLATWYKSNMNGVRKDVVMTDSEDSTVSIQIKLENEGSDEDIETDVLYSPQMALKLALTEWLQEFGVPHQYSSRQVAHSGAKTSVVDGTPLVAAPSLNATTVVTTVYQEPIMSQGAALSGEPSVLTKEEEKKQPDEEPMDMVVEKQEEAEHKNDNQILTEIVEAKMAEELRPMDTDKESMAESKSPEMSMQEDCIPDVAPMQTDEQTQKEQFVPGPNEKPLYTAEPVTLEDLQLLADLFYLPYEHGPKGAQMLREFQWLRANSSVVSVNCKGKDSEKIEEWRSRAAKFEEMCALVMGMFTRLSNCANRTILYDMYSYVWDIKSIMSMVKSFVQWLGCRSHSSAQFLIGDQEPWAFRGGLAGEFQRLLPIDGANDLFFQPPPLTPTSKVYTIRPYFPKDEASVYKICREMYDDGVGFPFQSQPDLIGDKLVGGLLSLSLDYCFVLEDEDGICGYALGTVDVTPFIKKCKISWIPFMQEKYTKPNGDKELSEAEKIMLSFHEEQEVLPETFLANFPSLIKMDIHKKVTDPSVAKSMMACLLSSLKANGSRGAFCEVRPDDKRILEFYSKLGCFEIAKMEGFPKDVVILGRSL

[2] = Cytotoxicity against human HepG2 cells assessed as cell viability at 5 uM after 48 hrs by MTT assay relative to control; format: cell-based; details: read-out: Activity
[3] = Cytotoxicity against mouse NIH/3T3 cells assessed as cell viability at 10 uM after 48 hrs by MTT assay relative to control; format: cell-based, NIH3T3; details: read-out: Activity
[4] = Cytotoxicity against mouse NIH/3T3 cells assessed as cell viability at 50 uM after 48 hrs by MTT assay relative to control; format: cell-based, NIH3T3; details: read-out: Activity
[5] = Cytotoxicity against human HepG2 cells assessed as cell viability at 100 uM after 48 hrs by MTT assay relative to control; format: cell-based; details: read-out: Activity
[6] = Cytotoxicity against human MCF7 cells assessed as cell viability at 5 uM after 48 hrs by MTT assay relative to control; format: cell-based; details: read-out: Activity
[7] = Cytotoxicity against human HeLa cells assessed as cell viability at 100 uM after 48 hrs by MTT assay relative to control; format: cell-based; details: read-out: Activity
[8] = Cytotoxicity against mouse NIH/3T3 cells assessed as cell viability at 100 uM after 48 hrs by MTT assay relative to control; format: cell-based, NIH3T3; details: read-out: Activity
[9] = Cytotoxicity against mouse NIH/3T3 cells assessed as cell viability at 5 uM after 48 hrs by MTT assay relative to control; format: cell-based, NIH3T3; details: read-out: Activity
[10] = Cytotoxicity against human MCF7 cells assessed as cell viability at 50 uM after 48 hrs by MTT assay relative to control; format: cell-based; details: read-out: Activity
[11] = Cytotoxicity against human HeLa cells assessed as cell viability at 20 uM after 48 hrs by MTT assay relative to control; format: cell-based; details: read-out: Activity
[12] = Cytotoxicity against human HepG2 cells assessed as cell viability at 10 uM after 48 hrs by MTT assay relative to control; format: cell-based; details: read-out: Activity
[13] = Cytotoxicity against human HeLa cells assessed as cell viability at 5 uM after 48 hrs by MTT assay relative to control; format: cell-based; details: read-out: Activity
[14] = Cytotoxicity against human MCF7 cells assessed as cell viability at 20 uM after 48 hrs by MTT assay relative to control; format: cell-based; details: read-out: Activity
[15] = Cytotoxicity against human MCF7 cells assessed as cell viability at 100 uM after 48 hrs by MTT assay relative to control; format: cell-based; details: read-out: Activity
[16] = species: Mus musculus; test: Modulation of OGT/OGA in mouse NIH/3T3 cells assessed as increase in O-GlcNAcylation at 5 to 100 uM by Western blot analysis; format: cell-based
[17] = Cytotoxicity against mouse NIH/3T3 cells assessed as cell viability at 20 uM after 48 hrs by MTT assay relative to control; format: cell-based, NIH3T3; details: read-out: Activity
[18] = Cytotoxicity against human MCF7 cells assessed as cell viability at 10 uM after 48 hrs by MTT assay relative to control; format: cell-based; details: read-out: Activity
[19] = Cytotoxicity against human HeLa cells assessed as cell viability at 50 uM after 48 hrs by MTT assay relative to control; format: cell-based; details: read-out: Activity
[20] = Cytotoxicity against human HepG2 cells assessed as cell viability at 50 uM after 48 hrs by MTT assay relative to control; format: cell-based; details: read-out: Activity
[21] = Cytotoxicity against human HeLa cells assessed as cell viability at 10 uM after 48 hrs by MTT assay relative to control; format: cell-based; details: read-out: Activity
[22] = Cytotoxicity against human HepG2 cells assessed as cell viability at 20 uM after 48 hrs by MTT assay relative to control; format: cell-based; details: read-out: Activity
[23] = Inhibition of lysosomal hexosaminidase (unknown origin); design: species or system Homo sapiens

inhibition [1]: Active
SMILES: CCNC1=N[C@@H]2[C@@H](O)[C@H](O)[C@@H](CO)O[C@@H]2S1

inhibition [1]: Active
SMILES: CC(=O)OC[C@H]1OC(OC(C)=O)[C@H](NC(=O)C(F)(F)F)[C@@H](OC(C)=O)[C@@H]1OC(C)=O (stereo not given in full)
viability at 48 h, 5 µM [2]: 96.9%
viability at 48 h, 10 µM [3]: 94.1%
viability at 48 h, 50 µM [4]: 61.3%
viability at 48 h, 100 µM [5]: 84.9%
viability at 48 h, 5 µM [6]: 98.3%
viability at 48 h, 100 µM [7]: 76.1%
viability at 48 h, 100 µM [8]: 35.9%
viability at 48 h, 5 µM [9]: 97.6%
viability at 48 h, 50 µM [10]: 96.4%
viability at 48 h, 20 µM [11]: 96%
viability at 48 h, 10 µM [12]: 94.7%
viability at 48 h, 5 µM [13]: 101%
viability at 48 h, 20 µM [14]: 97.1%
viability at 48 h, 100 µM [15]: 90.5%
Activity [16]: Active
viability at 48 h, 20 µM [17]: 85.6%
viability at 48 h, 10 µM [18]: 97.4%
viability at 48 h, 50 µM [19]: 84.1%
viability at 48 h, 50 µM [20]: 91.2%
viability at 48 h, 10 µM [21]: 96.2%
viability at 48 h, 20 µM [22]: 94.2%

Ki [23]: 30 to 40 nM
inhibition [1]: Active
SMILES: CC(=O)N[C@H]1/C(=N/OC(=O)Nc2ccccc2)O[C@H](CO)[C@@H](O)[C@@H]1O [PUGNAC]
